Results from publication PMC7906334, “The cell surface protein MUL_3720 confers binding of the skin pathogen Mycobacterium ulcerans to sulfated glycans and keratin” (PLoS Neglected Tropical Diseases, 2021).

Legend:
[1] = molecular target: T1, MUL_3720 (Mycobacterium ulcerans, UniProt A0PU23); assay: glycan array (fluorescence); type: binding; conditions: glycan printed on slide via spacer; 1 mM CaCl2 and 1 mM MgCl2 PBS printed for the cell arrays
T1 construct: full length aa 1-207 in pET28a, recombinant, purified; 22 kDa; the MUL_ locus tags are those of strain Agy99
Description: glycan array (fluorescence) on MUL_3720

[2] = molecular target: T1, MUL_3720; assay: SPR (Biacore T200); type: binding; conditions: read-out: MUL_3720; protein amine-immobilised on CM5 chip, free glycan as analyte
[3] = molecular target: MUL_3720 (Mycobacterium ulcerans) (UniProt A0PU23); assay: SPR; Biacore T200; MUL_3720 immobilised on a CM5 chip at pH 4.5 (5 uL/min, 600 s), ethanolamine blank flow cell as control; keratin extract flowed between 2 nM and 20 uM; double reference subtracted

| Compound | fold change in fluorescence binding signal [1] | further results |
| --- | --- | --- |
| 3,6-O-Su2-Galβ1-4(6-O-Su)GlcNAcβ-sp2 [compound 189] | 2.46±0.56 fold | – |
| CC(=O)N[C@H]1C(O)O[C@H](COS(=O)(=O)O)[C@H](O)[C@@H]1O[C@@H]1OC(C(=O)O)=C[C@H](O)[C@H]1O (stereo partly drawn) [chondroitin 6S-disaccharide ΔUAα 1-3GalNAc-6S] | – | Kd [2]: 99.2 ± 35 nM |
| 4,6-O-Su2-GalNAcβ1-4-(3-O-Ac)GlcNAcβ-sp3 [compound 199] | 2.45±0.87 fold | – |
| 6-O-Su-Galβ1-3GlcNAcβ-sp3 [compound 161] | 2.49±0.26 fold | – |
| 6-O-Su-Galβ1-3GalNAcα-sp3 [compound 151] | 2.44±0.88 fold | – |
| CC(=O)N[C@H]1C(O)O[C@H](CO)[C@@H](O[C@@H]2O[C@@H](C)[C@@H](O)[C@@H](O)[C@@H]2O)[C@@H]1O[C@@H]1O[C@H](CO)[C@H](O)[C@H](OS(=O)(=O)O)[C@H]1O[C@@H]1O[C@@H](C)[C@@H](O)[C@@H](O)[C@@H]1O (stereo partly shown) [Fucα1-2(3-O-Su)Galβ1-3(Fucα1–4)GlcNAc] | – | Kd [2]: 17400 ± 1900 nM |
| 6-O-Su-Galβ1-3(6-O-Su)GlcNAcβ-sp2 [compound 179] | 1.48±0.33 fold | – |
| 3,6-O-Su2-Galβ1-4GlcNAcβ-sp2 [compound 182] | 3.29±1.77 fold | – |
| keratin isolated from human epidermis (mixed keratins with average molecular weight of 64.1 kDa) | – | Kd [3]: 4.78 nM |
| CC(=O)N[C@H]1[C@H](OCCCN)O[C@H](CO)[C@@H](O[C@@H]2O[C@H](CO)[C@H](OS(=O)(=O)O)[C@H](OS(=O)(=O)O)[C@H]2O)[C@@H]1O [compound 201, 3,4-O-Su2-Galβ1-4GlcNAcβ-sp3] | 1.52±0.64 fold | – |
